In patent publication EP2818472A1, “Imidazo[4,5-c]pyridine and pyrrolo[3,2-c]pyridine compounds as G-protein-coupled receptor kinase 5 (GRK5) modulators” (Max-Planck-Gesellschaft zur Förderung der Wissenschaften …, priority 2013, dated 2014):

What follows are compounds tested on beta-TC6 cells (assay: Insulin HTRF assay (relative activity Ar) in beta-TC6 cells). Details: Mus musculus, Beta-TC6, 4 h, insulin HTRF, supernatant of beta-TC6 cells, incubation with test compound at 37°C for 2, 3, 4h; read-out: Ar (relative activity).
Type: cell-based, mouse
How it was run: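 beta-TC6 cells (15k/well, seeded 24 or 48 h) washed, then exposed to compound in induction buffer (0.5% DMSO final) for 2, 3 or 4 h at 37°C.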

Compared with COc1cc(Nc2cc3c(cn2)nc(-c2ccco2)n3C)cc(OC)c1OC [Compound 707, 2-(2-furyl)-1-methyl-N-(3,4,5-trimethoxyphenyl)imidazo[4,5-c]pyridin-6-amine], CNc1nc2cnc(Nc3cc(OC)c(OC)c(OC)c3)cc2n1C [Compound 609, N2,1-dimethyl-N6-(3,4,5-trimethoxyphenyl)imidazo[4,5-c]pyridine-2,6-diamine] is lower in Emax: > 100% for the first, 50 to 100% for the second.

CNc1nc2cnc(-c3ccc(C(N)=O)cc3)cc2n1-c1ccccc1 [Compound 786, 4-[2-(methylamino)-1-phenyl-imidazo[4,5-c]pyridin-6-yl]benzamide] and CNc1nc2cnc(-c3ccccc3OC)cc2n1-c1ccccc1 [Compound 782, 6-(2-methoxyphenyl)-N-methyl-1-phenyl-imidazo[4,5-c]pyridin-2-amine] fall in the same range of Emax: 0 to 30% for the first, 0 to 30% for the second.

First: CN1CCN(c2ccc(Nc3nccc4[nH]c(-c5ccsc5)cc34)cc2)CC1 [Compound 257, N-[4-(4-methylpiperazin-1-yl)phenyl]-2-(3-thienyl)-1H-pyrrolo[3,2-c]pyridin-4-amine]
Second: NC(=O)c1ccc(Nc2nccc3[nH]c(-c4ccsc4)cc23)cc1 [Compound 250, 4-[[2-(3-thienyl)-1H-pyrrolo[3,2-c]pyridin-4-yl]amino]benzamide]
The Emax of the first is lower: 30 to 50% for the first, 50 to 100% for the second.

FC(F)(F)Oc1cccc(-c2nc3c(NCc4ccccn4)nccc3[nH]2)c1 [Compound 445, N-(2-pyridylmethyl)-2-[3-(trifluoromethoxy)phenyl]-1H-imidazo[4,5-c]pyridin-4-amine] and FC(F)(F)Oc1cccc(-c2nc3c(N4CCOCC4)nccc3[nH]2)c1 [Compound 446, 4-[2-[3-(trifluoromethoxy)phenyl]-1H-imidazo[4,5-c]pyridin-4-yl]morpholine] fall in the same range of Emax: 30 to 50% for the first, 30 to 50% for the second.

Compared with CNc1nc2cnc(Nc3ccc4c(c3)OCCO4)cc2n1Cc1cccnc1 [Compound 561, N6-(2,3-dihydro-1,4-benzodioxin-6-yl)-N2-methyl-1-(3-pyridylmethyl)imidazo[4,5-c]pyridine-2,6-diamine], CNc1nc2cnc(Nc3ccccc3)cc2n1Cc1cccnc1 [Compound 562, N2-methyl-N6-phenyl-1-(3-pyridylmethyl)imidazo[4,5-c]pyridine-2,6-diamine] is lower in Emax: > 100% for the first, 30 to 50% for the second.

CNc1nc2cnc(Nc3ccc(NC(C)=O)cc3)cc2n1-c1cc(OC)c(OC)c(OC)c1 [Compound 483, N-[4-[[2-(methylamino)-1-(3,4,5-trimethoxyphenyl)imidazo[4,5-c]pyridin-6-yl]amino]phenyl]acetamide] and COc1cc(Nc2cc3c(cn2)nc(NCc2ccccc2)n3C)cc(OC)c1OC [Compound 616, N2-benzyl-1-methyl-N6-(3,4,5-trimethoxyphenyl)imidazo[4,5-c]pyridine-2,6-diamine] fall in the same range of Emax: 50 to 100% for the first, 50 to 100% for the second.

Compared with COc1ccc(-c2nc3c(Nc4cccc(OC)c4)nccc3[nH]2)cc1 [Compound 390, N-(3-methoxyphenyl)-2-(4-methoxyphenyl)-1H-imidazo[4,5-c]pyridin-4-amine], COc1ccc(Nc2nccc3[nH]c(-c4cccc(C(F)(F)F)c4)nc23)cc1 [Compound 356, N-(4-methoxyphenyl)-2-[3-(trifluoromethyl)phenyl]-1H-imidazo[4,5-c]pyridin-4-amine] is higher in Emax: 30 to 50% for the first, > 100% for the second.

COc1ccccc1-c1cc2c(Nc3cccc(NC(C)=O)c3)nccc2[nH]1 [Compound 299, N-[3-[[2-(2-methoxyphenyl)-1H-pyrrolo[3,2-c]pyridin-4-yl]amino]phenyl]acetamide] and COc1cccc(-c2cc3c(Nc4cccc(S(C)(=O)=O)c4)nccc3[nH]2)c1 [Compound 311, 2-(3-methoxyphenyl)-N-(3-methylsulfonylphenyl)-1H-pyrrolo[3,2-c]pyridin-4-amine] fall in the same range of Emax: 50 to 100% for the first, 50 to 100% for the second.

Oc1cccc(Nc2cc3[nH]c(-c4cccc(F)c4)cc3cn2)c1 [Compound 10, 3-[[2-(3-fluorophenyl)-1H-pyrrolo[3,2-c]pyridin-6-yl]amino]phenol] and CS(=O)(=O)Nc1cccc(Nc2nccc3[nH]c(-c4cccc(F)c4)cc23)c1 [Compound 205, N-[3-[[2-(3-fluorophenyl)-1H-pyrrolo[3,2-c]pyridin-4-yl]amino]phenyl]methanesulfonamide] fall in the same range of Emax: 50 to 100% for the first, 50 to 100% for the second.

First: Cc1cccc(CNc2nc3cnc(Nc4cccc(S(C)(=O)=O)c4)cc3n2C)c1 [Compound 584, 1-methyl-N6-(3-methylsulfonylphenyl)-N2-(m-tolylmethyl)imidazo[4,5-c]pyridine-2,6-diamine]
Second: COc1ccc(Nc2cc3c(cn2)nc(NCc2cccc(C)c2)n3C)cc1OC [Compound 578, N6-(3,4-dimethoxyphenyl)-1-methyl-N2-(m-tolylmethyl)imidazo[4,5-c]pyridine-2,6-diamine]
The Emax of the first is lower: 30 to 50% for the first, 50 to 100% for the second.

COc1ccc(Nc2nccc3[nH]c(-c4ccco4)nc23)cc1 [Compound 466, 2-(2-furyl)-N-(4-methoxyphenyl)-1H-imidazo[4,5-c]pyridin-4-amine] and COc1ccc(Nc2nccc3[nH]c(-c4ccc(C)cc4)nc23)cn1 [Compound 379, N-(6-methoxy-3-pyridyl)-2-(p-tolyl)-1H-imidazo[4,5-c]pyridin-4-amine] fall in the same range of Emax: 50 to 100% for the first, 50 to 100% for the second.

CNc1nc2cnc(Nc3ccc(O)cc3)cc2n1-c1cccc(C(F)(F)F)c1 [Compound 541, 4-[[2-(methylamino)-1-[3-(trifluoromethyl)phenyl]imidazo[4,5-c]pyridin-6-yl]amino]phenol] and CNc1nc2cnc(Nc3ccc(S(C)(=O)=O)cc3)cc2n1-c1ccccc1 [Compound 518, N2-methyl-N6-(4-methylsulfonylphenyl)-1-phenyl-imidazo[4,5-c]pyridine-2,6-diamine] fall in the same range of Emax: 50 to 100% for the first, 50 to 100% for the second.

Clc1cccc(Nc2nccc3[nH]c(-c4ccncc4)nc23)c1 [Compound 424, N-(3-chlorophenyl)-2-(4-pyridyl)-1H-imidazo[4,5-c]pyridin-4-amine] and Clc1ccc(CNc2nccc3[nH]c(-c4ccncc4)nc23)cc1 [Compound 433, N-[(4-chlorophenyl)methyl]-2-(4-pyridyl)-1H-imidazo[4,5-c]pyridin-4-amine] fall in the same range of Emax: 30 to 50% for the first, 30 to 50% for the second.

Compared with Cn1c(Nc2ccccc2)nc2cnc(Nc3ccccc3)cc21 [Compound 634, 1-methyl-N2,N6-diphenyl-imidazo[4,5-c]pyridine-2,6-diamine], Cn1c(Nc2ccccc2)nc2cnc(Nc3ccccn3)cc21 [Compound 637, 1-methyl-N2-phenyl-N6-(2-pyridyl)imidazo[4,5-c]pyridine-2,6-diamine] is lower in Emax: 50 to 100% for the first, 30 to 50% for the second.

First: CNc1nc2cnc(-c3ccc(N(C)C)cc3)cc2n1Cc1ccccc1 [Compound 525, 1-benzyl-6-(4-dimethylaminophenyl)-N-methyl-imidazo[4,5-c]pyridin-2-amine]
Second: CNc1nc2cnc(-c3ccc(NC(C)=O)cc3)cc2n1Cc1ccccc1 [Compound 799, N-[4-[1-benzyl-2-(methylamino)imidazo[4,5-c]pyridin-6-yl]phenyl]acetamide]
The Emax of the first is higher: 30 to 50% for the first, 0 to 30% for the second.

First: COc1ccc(-c2cc3c(cn2)nc(Nc2ccccc2)n3C)cc1 [Compound 847, 6-(4-methoxyphenyl)-1-methyl-N-phenyl-imidazo[4,5-c]pyridin-2-amine]
Second: CN(C)c1ccc(-c2cc3c(cn2)nc(Nc2ccccc2)n3C)cc1 [Compound 631, 6-(4-dimethylaminophenyl)-1-methyl-N-phenyl-imidazo[4,5-c]pyridin-2-amine]
The Emax of the first is lower: 30 to 50% for the first, > 100% for the second.

Compared with COc1cc(Nc2nccc3[nH]c(-c4ccc(O)cc4)nc23)cc(OC)c1OC [Compound 364, 4-[4-(3,4,5-trimethoxyanilino)-1H-imidazo[4,5-c]pyridin-2-yl]phenol], COc1cc(Nc2nccc3[nH]c(-c4ccc(C)cc4)nc23)cc(OC)c1OC [Compound 377, 2-(p-tolyl)-N-(3,4,5-trimethoxyphenyl)-1H-imidazo[4,5-c]pyridin-4-amine] is lower in Emax: 50 to 100% for the first, 30 to 50% for the second.

First: CC(=O)Nc1cccc(Nc2cc3c(cn2)nc(NCc2ccccc2)n3C)c1 [Compound 627, N-[3-[[2-(benzylamino)-1-methyl-imidazo[4,5-c]pyridin-6-yl]amino]phenyl]acetamide]
Second: Cn1c(NCC2CC2)nc2cnc(Nc3cccc(Oc4ccccc4)c3)cc21 [Compound 750, N2-(cyclopropylmethyl)-1-methyl-N6-(3-phenoxyphenyl)imidazo[4,5-c]pyridine-2,6-diamine]
The Emax of the first is higher: 50 to 100% for the first, 0 to 30% for the second.

Compared with CC(C)c1ccc(Nc2nccc3c2ncn3Cc2ccccc2)cc1 [Compound 457, 1-benzyl-N-(4-isopropylphenyl)imidazo[4,5-c]pyridin-4-amine], Cn1cc(-c2cc3cnc(Nc4ccccc4)cc3n2C)cn1 [Compound 132, 1-methyl-2-(1-methylpyrazol-4-yl)-N-phenyl-pyrrolo[3,2-c]pyridin-6-amine] is higher in Emax: 30 to 50% for the first, 50 to 100% for the second.

CNc1nc2cnc(Nc3ccc(O)cc3)cc2n1Cc1ccc(OC)c(OC)c1 [Compound 663, 4-[[1-[(3,4-dimethoxyphenyl)methyl]-2-(methylamino)imidazo[4,5-c]pyridin-6-yl]amino]phenol] and COCCNc1nc2cnc(Nc3ccc(NC(C)=O)cc3)cc2n1C [Compound 646, N-[4-[[2-(2-methoxyethylamino)-1-methyl-imidazo[4,5-c]pyridin-6-yl]amino]phenyl]acetamide] fall in the same range of Emax: 50 to 100% for the first, 50 to 100% for the second.

First: COc1cc(Nc2cc3c(cn2)ncn3C)cc(OC)c1OC [Compound 725, 1-methyl-N-(3,4,5-trimethoxyphenyl)imidazo[4,5-c]pyridin-6-amine]
Second: Cn1cc(-c2cc3cnc(Nc4ccccn4)cc3n2C)cn1 [Compound 139, 1-methyl-2-(1-methylpyrazol-4-yl)-N-(2-pyridyl)pyrrolo[3,2-c]pyridin-6-amine]
The Emax of the first is lower: 30 to 50% for the first, 50 to 100% for the second.

Compared with c1cncc(Nc2nccc3[nH]c(-c4ccsc4)cc23)c1 [Compound 255, N-(3-pyridyl)-2-(3-thienyl)-1H-pyrrolo[3,2-c]pyridin-4-amine], c1ccc(-c2cc3cnc(N4CCOCC4)cc3[nH]2)cc1 [Compound 181, 4-(2-phenyl-1H-pyrrolo[3,2-c]pyridin-6-yl)morpholine] is higher in Emax: 50 to 100% for the first, > 100% for the second.
